From ChEMBL document CHEMBL1201862, “PubChem BioAssay data set” (2004)
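A five-concentration, 48-hour dose response in 96-well plates underlies each endpoint, interpolated linearly between surrounding concentrations. GI50 marks 50% less growth.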 Activity calls are given as the source filed them. No stated cut-off is given here; in the data, active = GI50 up to about 1.1 µM and inactive = higher.

Tests used:
Experiment in all cases: inhibition of tumour cell growth, NCI panel, 48 h
[1] = tested on: HOP-62
[2] = tested on: SK-MEL-5
[3] = tested on: HCT-15
[4] = tested on: BT-549
[5] = tested on: KM12
[6] = tested on: MDA-N
[7] = tested on: SR
[8] = tested on: IGROV-1
[9] = tested on: LOX IMVI
[10] = tested on: DU-145
[11] = tested on: SK-MEL-28
[12] = tested on: U-251
[13] = tested on: HT-29
[14] = tested on: ACHN
[15] = tested on: TK-10
[16] = tested on: MDA-MB-231
[17] = tested on: OVCAR-4
[18] = tested on: NCI/ADR-RES
[19] = tested on: MDA-MB-435
[20] = tested on: COLO 205
[21] = tested on: M14
[22] = tested on: SW-620
[23] = tested on: RPMI-8226
[24] = tested on: MOLT-4
[25] = tested on: NCI-H23
[26] = tested on: CCRF-CEM
[27] = tested on: SF-539
[28] = tested on: SN12C
[29] = tested on: SNB-19
[30] = tested on: UO-31
[31] = tested on: K562
[32] = tested on: HCT-116
[33] = tested on: SF-268
[34] = tested on: NCI-H460
[35] = tested on: OVCAR-3
[36] = tested on: A549
[37] = tested on: UACC-257
[38] = tested on: SNB-75
[39] = tested on: 786-0
[40] = tested on: MCF7
[41] = tested on: OVCAR-5
[42] = tested on: A498
[43] = tested on: OVCAR-8
[44] = tested on: EKVX
[45] = tested on: NCI-H226
[46] = tested on: UACC-62
[47] = tested on: Malme-3M
[48] = tested on: NCI-H522
[49] = tested on: CAKI-1
[50] = tested on: PC-3
[51] = tested on: SK-OV-3
[52] = tested on: SK-MEL-2
[53] = tested on: HCC 2998
[54] = tested on: HOP-92
[55] = tested on: SF-295
[56] = tested on: RXF 393
[57] = tested on: T47D
[58] = tested on: HL-60

Compound: N=C(N)NS(=O)(=O)c1ccc(NC(=O)c2c3ccccc3nc3ccccc23)cc1
- GI50 [1]: > 100 µM (inactive)
- GI50 [2]: > 100 µM (inactive)
- GI50 [3]: > 100 µM
- GI50 [4]: > 100 µM (inactive)
- GI50 [5]: > 100 µM (inactive)
- GI50 [6]: > 100 µM (inactive)
- GI50 [7]: > 100 µM (inactive)
- GI50 [8]: > 100 µM (inactive)
- GI50 [9]: > 100 µM (inactive)
- GI50 [10]: > 100 µM (inactive)
- GI50 [11]: > 100 µM (inactive)
- GI50 [12]: > 100 µM (inactive)
- GI50 [13]: > 100 µM (inactive)
- GI50 [14]: > 100 µM (inactive)
- GI50 [15]: > 100 µM (inactive)
- GI50 [16]: > 100 µM (inactive)
- GI50 [17]: > 100 µM (inactive)
- GI50 [18]: > 100 µM (inactive)
- GI50 [19]: > 100 µM (inactive)
- GI50 [20]: > 100 µM (inactive)
- GI50 [21]: > 100 µM (inactive)
- GI50 [22]: > 100 µM (inactive)
- GI50 [23]: > 100 µM (inactive)
- GI50 [24]: > 100 µM (inactive)
- GI50 [25]: > 100 µM (inactive)
- GI50 [26]: > 100 µM (inactive)
- GI50 [27]: > 100 µM (inactive)
- GI50 [28]: > 100 µM (inactive)
- GI50 [29]: 86.5 µM (inactive)
- GI50 [30]: > 100 µM (inactive)
- GI50 [31]: > 10 µM (inactive)
- GI50 [32]: > 100 µM (inactive)
- GI50 [33]: > 100 µM (inactive)
- GI50 [34]: > 100 µM (inactive)
- GI50 [35]: > 100 µM (inactive)
- GI50 [36]: > 100 µM (inactive)
- GI50 [37]: > 100 µM (inactive)
- GI50 [38]: > 100 µM (inactive)
- GI50 [39]: > 100 µM (inactive)
- GI50 [40]: > 100 µM (inactive)
- GI50 [41]: > 100 µM (inactive)
- GI50 [42]: > 100 µM (inactive)
- GI50 [43]: > 100 µM (inactive)
- GI50 [44]: > 100 µM (inactive)
- GI50 [45]: 43.1 µM (inactive)
- GI50 [46]: > 100 µM (inactive)
- GI50 [47]: > 100 µM (inactive)
- GI50 [48]: > 100 µM (inactive)
- GI50 [49]: > 100 µM (inactive)
- GI50 [50]: > 100 µM (inactive)
- GI50 [51]: > 100 µM (inactive)
- GI50 [52]: > 100 µM (inactive)
- GI50 [53]: > 100 µM (inactive)
- GI50 [54]: > 100 µM (inactive)
- GI50 [55]: > 100 µM (inactive)

Compound: O=C1/C(=C/c2ccc(Cl)cc2)CSC/C1=C\c1ccc(Cl)cc1
- GI50 [1]: 4.74 µM (inactive)
- GI50 [2]: 3.45 µM (inactive)
- GI50 [3]: 13.9 µM
- GI50 [4]: 2.21 µM (inactive)
- GI50 [5]: 1.96 µM (inactive)
- GI50 [6]: 3.06 µM (inactive)
- GI50 [7]: 2.69 µM (inactive)
- GI50 [8]: 1.82 µM (inactive)
- GI50 [9]: 1.91 µM (inactive)
- GI50 [10]: 5.87 µM (inactive)
- GI50 [11]: 1.87 µM (inactive)
- GI50 [12]: 1.67 µM (inactive)
- GI50 [13]: 1.97 µM (inactive)
- GI50 [14]: 3.8 µM (inactive)
- GI50 [15]: 3.18 µM (inactive)
- GI50 [16]: 4.17 µM (inactive)
- GI50 [17]: 3.71 µM (inactive)
- GI50 [18]: 6.27 µM (inactive)
- GI50 [20]: 3.02 µM (inactive)
- GI50 [21]: 1.84 µM (inactive)
- GI50 [22]: 3.15 µM (inactive)
- GI50 [23]: 0.798 µM (active)
- GI50 [24]: 2.61 µM (inactive)
- GI50 [25]: 2.9 µM (inactive)
- GI50 [26]: 2.68 µM (inactive)
- GI50 [27]: 2.76 µM (inactive)
- GI50 [56]: 1.35 µM (inactive)
- GI50 [28]: 3.39 µM (inactive)
- GI50 [29]: 4.84 µM (inactive)
- GI50 [30]: 1.92 µM (inactive)
- GI50 [31]: 3.08 µM (inactive)
- GI50 [32]: 1.76 µM (inactive)
- GI50 [33]: 5.96 µM (inactive)
- GI50 [34]: 3.32 µM (inactive)
- GI50 [35]: 2.93 µM (inactive)
- GI50 [36]: 4.08 µM (inactive)
- GI50 [37]: 1.99 µM (inactive)
- GI50 [39]: 3.08 µM (inactive)
- GI50 [40]: 2.72 µM (inactive)
- GI50 [41]: 2.19 µM (inactive)
- GI50 [43]: 3.54 µM (inactive)
- GI50 [57]: 6.89 µM (inactive)
- GI50 [44]: 22.9 µM (inactive)
- GI50 [45]: 2.2 µM (inactive)
- GI50 [46]: 1.51 µM (inactive)
- GI50 [47]: 10.3 µM (inactive)
- GI50 [48]: 4.99 µM (inactive)
- GI50 [49]: 4.06 µM (inactive)
- GI50 [50]: 3.52 µM (inactive)
- GI50 [51]: 5.32 µM (inactive)
- GI50 [52]: 14.5 µM (inactive)
- GI50 [58]: 1.34 µM (inactive)
- GI50 [53]: 2.07 µM (inactive)
- GI50 [54]: 21.2 µM (inactive)
- GI50 [55]: 1.71 µM (inactive)
